# Measurements reported in US11261429B2, “Enriched and expanded human cord blood stem cells for treatment of hematological disorders” (ICAHN SCHOOL OF MEDICINE AT MOUNT SINAI, priority 2013, dated 2022).
# Several values for one entry are separate records, joined by “and”; a condition that tells them apart may be missing. Identical values can stand only once. Entries after “also recorded” stand apart in the source; their conditions may differ.
# Assays:
# CB CD34+ cells [1] = assay: Ex vivo expansion of CB CD34+ cells with HDACIs, phenotypic analysis by flow cytometry; format: cell-based, human; conditions: for fold expansion of CD34+ cells / fold expansion of CD34+CD90+ cells: cytokines
# From the text: CB collections were purchased from the Placental Blood Program at the New York Blood Center. CB-MNCs were isolated by Ficoll-Hypaque density centrifugation, and CD34+ cells were purified by immunotnagnetic selection as previously described (Chaurasia et al., “Chromatin-Modifying Agents Promote the Ex vivo Production of Functional Human Erythroid Progenitor Cells,” Blood 117:4632-4641 (2011), which is hereby incorporated by reference in its entirety). Highly purified (90%-98%) PCs (4.0-5.0×10^4) were cultured in SF Stemline II (Sigma-Aldrich) culture medium or IMDM (Lonza) containing 30% FBS (HyClone Laboratories) supplemented with 150 ng/ml SCF, 100 ng/ml fms-like tyrosine kinase receptor 3 (FLT3 ligand), 100 ng/ml thrombopoietin (TPO), and 50 ng/ml interleukin 3 (IL-3) (R&D Systems) and incubated in a humidified incubator maintained at 37° C. with 5% CO2. […] The cell populations studied and the various conditions under which they were cultured are referred to by specific terms listed in Table 1. Viable PC and cultured cells were enumerated using the trypan blue exclusion method. The fold expansion of CD34+ cells or subpopulations was calculated based on the number of CD34+ cells determined to be present in an individual CB collection and the number of CD34+ cells that would have been generated if all of the CD34+ cells within that primary CB collection were cultured using the various culture conditions described. PC or cultured cells expanded in the presence or absence of HDACIs were stained with an anti-human CD34 mAb or an isotype-matched control mAb and analyzed using a FACSCanto II (BD). CD34+ cells were re-isolated using a CD34+ cell isolation kit, as previously described, for further phenotypic and functional analyses. All mAbs were purchased from BD Biosciences and Cell Signaling Technology. Phenotypic analyses ([…], […], and […]7) of the ex vivo-expanded cells after 7 days in control cultures or cytokines plus an HDACI were performed as previously described (Chaurasia et al., “Chromatin-Modifying Agents Promote the Ex vivo Production of Functional Human Erythroid Progenitor Cells,” Blood 117:4632-4641 (2011), which is hereby incorporated by reference in its entirety).
# CB CD34+ cells [2] = assay: Migration assay towards SDF1 (Transwell); format: cell-based, human; conditions: SDF1 100 ng/ml, after 16 and 48 hours, versus control
# Method: The migratory behavior of CB CD34+ cells was evaluated as previously described using 6.5 mm diameter, 5 μm pore Transwell plates (Costar) (Shivtiel et al., “CD45 Regulates Homing and Engraftment of Immature Normal and Leukemic Human Cells in Transplanted immunodeficient Mice,” Exp. Hematol. 39(12):1161-1170 (2011), which is hereby incorporated by reference in its entirety). The lower compartments of the Transwells were filled with StemLine II SF medium supplemented with 100 ng/ml of stromal-derived factor 1 (SDF1) (R&D Systems). The Transwell filters were coated with Matrigel for 30 minutes at 37° C. Re-isolated CD34+ cells (1×10^5) from the control and VPA-containing cultures were plated on the Matrigel-coated filters in 100 μl of Stemline II media. After 16 and 48 hours, cells that migrated to the lower compartment were enumerated, and the percentage of migration was calculated as follows: (number of cells migrated/total number of cells plated)×100.
# HDAC5 = assay: HDAC protein levels in CB-MNCs, Western blot densitometry; format: cell-based, human; conditions: 24 hr, SCR 8 μM, C433 80 μM, VPA 1.25 mM
# From the text: (§1) Cellular proteins were separated by SDS-PAGE using Novex (Invitrogen) and transferred by iBlot (Invitrogen). The membranes were probed with mAbs against individual histone deacetylases (HDAC1, HDAC2, HDAC3, HDAC4, HDAC5, HDAC6, and β-actin; Cell Signaling Technology) and developed using a chemiluminescence system with HRP-conjugated secondary antibodies (Amersham Biosciences) according to the manufacturer's instructions.
# HDAC6 = assay: as above; format: cell-based, human; conditions: 24 hr, SCR 8 μM, C433 80 μM, VPA 1.25 mM
# From the text: as §1
# class I and II HDAC = assay: HDAC protein levels in CB-MNCs, Western blot, all HDACs examined; format: cell-based, human; conditions: after 2 hours of treatment
# From the text: as §1
# CB CD34+ cells [3] = assay: Effect of siRNA transfection on cell numbers and CD34+/CD34+CD90+ cells; format: cell-based, human; conditions: VPA culture, 72 hrs after transfection
# Method: CB CD34+ cells were treated with VPA under SF culture conditions. VPA-treated cells were transfected with individual SOX2, OCT4, NANOG, GAPDH, and scrambled siRNA or with a combination of SOX2, OCT4, and NANOG Silencer Select siRNAs (Invitrogen, CA). A GFP plasmid was included to determine the transfection efficiency according to the manufacturer's instructions for the Neon transfection system (Invitrogen).
# After 72 hours of VPA treatment, cells (0.5×10^6 to 1×10^6) were washed in PBS and suspended in 8 μl of Neon resuspension buffer R. Individual siRNAs (2 μl, 10-30 nM) or a combination of SOX2, OCT4, NANOG (SON), or pcDNA6.2/EmGFP plasmid (200 ng; Invitrogen) were mixed with the 8 μl of cells according to the manufacturer's instructions. Cells were pulsed three times with a voltage of 1,400 and a width of 20 ms and immediately transferred to pre-warmed media supplemented with cytokines plus VPA. […]
# In addition, cells treated with scrambled or combined SON siRNA were stained using human CD34 and CD90 mAbs, and the percentages of CD34+ and CD34+CD90+ cells were determined by flow cytometric analysis. […] SOX2, OCT4, NANOG, and ZIC3 protein expression levels following SON siRNA-mediated pluripotency gene knockdown were assessed by confocal microscopy as described above.
# NSG mice = assay: Teratoma formation assay in NSG mice; format: in vivo; conditions: 1×10^6 re-isolated CD34+ cells subcutaneously, 8 weeks
# Method: CD34+ cells (1×10^6) re-isolated from control cultures or cultures containing VPA or a similar number of ES cells were suspended in 100 μl of PBS. These cells were mixed with an equal volume of ice-cold Matrigel and injected subcutaneously into the right hind limb of three NSG mice per group (re-isolated CD34+ cells from control cultures, VPA-treated cultures, and ES cells). The mice were observed weekly for teratoma formation and sacrificed after 8 weeks. Teratomas were dissected, fixed, sectioned, and stained with H&E and examined morphologically (O'Connor et al., “Functional Assays for Human Embryonic Stem Cell Pluripotency,” Methods Mol Biol. 690:67-80 (2011), which is hereby incorporated by reference in its entirety).
# CB CD34+ cells [4] = assay: Ex vivo expansion of CB CD34+ cells with HDACIs, phenotypic analysis by flow cytometry; format: cell-based, human; conditions: VPA alone (no cytokines), SF, 7 days after 16 h priming
# [5] = SF cultures containing VPA, 7 days
compound,measurement,setting,value
"CCCC(CCC)C(=O)O [VPA, valproic acid]",percentage of CD34+CD90+ cells,CB CD34+ cells [1]; 7 days of culture with cytokines plus HDACI,75.2%±10.7% and 74.2±9.8%
same,fold expansion of CD34+ cells,"CB CD34+ cells [1]; SC conditions, 7 days",78 fold
same,fold expansion of CD34+CD90+ cells,"CB CD34+ cells [1]; SC conditions, 7 days",89 fold
same,fold expansion of CD34+ cells,"CB CD34+ cells [1]; SF conditions, 7 days",213 fold
same,fold expansion of CD34+CD90+ cells,"CB CD34+ cells [1]; SF conditions, 7 days","20,202 fold"
same,CD34+CD90+ cells expressing CD45RA,CB CD34+ cells [1]; [5],1.9%±2.1%
same,CD34+CD90+ cells expressing CD49f,CB CD34+ cells [1]; [5],47.0%±4.4%
same,B Cells (CD19),CB CD34+ cells [1]; VPA-treated cells after 7 days,0.5±0.1%
same,CD14+ cells,CB CD34+ cells [1]; VPA-treated cells after 7 days,3.9±1.5%
same,CD41+ cells,CB CD34+ cells [1]; VPA-treated cells after 7 days,8.9±2.0%
same,Glycophorin+ cells,CB CD34+ cells [1]; VPA-treated cells after 7 days,17.0±5.4%
same,T Cells (CD3),CB CD34+ cells [1]; VPA-treated cells after 7 days,0.2±0.3%
same,migration of CD34+ cells in response to SDF1,CB CD34+ cells [2],significantly greater number of CD34+ cells treated with VPA migrated in response to SDF1
same,HDAC5 expression relative to b-ACTIN (%),HDAC5,21.4 ± 10.7%
same,HDAC6 expression relative to b-ACTIN (%),HDAC6,54.2 ± 7.9%
same,inhibition of HDAC expression,class I and II HDAC,did not inhibit HDAC expression
same,CD34+CD90+ cells (%),CB CD34+ cells [3],78.6 ± 2.0 %
same,Total number of cells/well,CB CD34+ cells [3],4.0 × 10^6 ± 0.4 × 10^6 cells/well
same,teratoma formation,NSG mice,did not form teratomas; also recorded: neither control nor VPA treated CD34+ cells formed teratomas
same,fold expansion of CD34+ cells per CB collection,CB CD34+ cells [4],9.0 fold
same,fold expansion of CD34+CD90+ cells per CB collection,CB CD34+ cells [4],486 fold
